Assay: Antagonist activity at CCR2 receptor in human monocytes assessed as inhibition of MCP1-mediated chemotaxis

IC50 | SMILES
2 nM | CC(C)(O)[C@]1(C(=O)NCc2cc(C(F)(F)F)cc(C(F)(F)F)c2)CC[C@@H](N2CCC(c3cncnc3)CC2)C1 [(1S,3R)-N-(3,5-bis(trifluoromethyl)benzyl)-1-(2-hydroxypropan-2-yl)-3-(4-(pyrimidin-5-yl)piperidin-1-yl)cyclopentanecarboxamide]
2 nM | CC(C)[C@]1(C(=O)NCc2cc(C(F)(F)F)cc(C(F)(F)F)c2)CC[C@@H](N2CCC(c3cncnc3)CC2)C1 [N-(3,5-bis(trifluoromethyl)benzyl)-1-isopropyl-3-(4-(pyrimidin-5-yl)piperidin-1-yl)cyclopentanecarboxamide]

From BindingDB's records for doi:10.1016/j.bmcl.2007.12.029 (Merck Research Laboratories, 2008)
